According to publication PMC12040169 (PLOS Biology, 2025):

assay: in vitro; conditions: human, hela cells, % viability

| SMILES | viability at 28.5 h, 10 µM [%] |
| --- | --- |
| O=C(Nc1ccc(S(=O)(=O)N2CCCCCC2)cc1)c1nc2ncccn2n1 [CBK266155] | 97.7 |
| O=C(Nc1scc(-c2ccc(-c3ccccc3)cc2)c1C(=O)O)c1ccco1 [CBK266156] | 108 |
| O=C(Nc1ccc(I)cc1C(=O)NCCN1CCOCC1)c1ccc(Cl)cc1Cl [CBK266157] | 100 |
| COc1ccc(S(=O)(=O)N(C)CC(=O)Nc2ccccc2C(F)(F)F)cc1OC [CBK266159] | 106 |
| Cc1nn(Cc2ccc(Cl)cc2)c(C)c1NC(=O)CSc1nc(-c2ccc(F)cc2)cc(C(F)(F)F)n1 [CBK266160] | 89.7 |
| NS(=O)(=O)c1ccc(NC(=O)CN2CCC(Cc3ccccc3)CC2)cc1 [CBK266161] | 98.6 |
| O=C(COc1ccc(Cl)cc1Cl)Nc1ccc(CN2CCCCC2)cc1 [CBK266164] | 105 |
| N#C/C(=C\c1cccn1-c1ccc(S(N)(=O)=O)cc1)c1nc2ccccc2[nH]1 [CBK266167] | 103 |
| O=C(C1=C(O)C(=O)N(CCCn2ccnc2)C1c1cccs1)c1ccc2c(c1)OCCO2 (centres unmarked) [CBK266170] | 92 |
| O=C(COc1ccccc1)Nc1ccccc1Sc1ncnc2sc3c(c12)CCCC3 [CBK266171] | 98.4 |
| Cc1cccc(-n2c(N)cc(=O)nc2SC(C)C(=O)Nc2ccc(S(N)(=O)=O)cc2)c1 (centres unmarked) [CBK266173] | 99.7 |
| O=C(CSc1nnc(-c2cccnc2)n1-c1ccc(Br)cc1)Nc1ccc(F)cc1 [CBK266174] | 111 |
| Nc1nc(SCCCC(=O)NC2CCCCC2)nc2sc3c(c12)CCCC3 [CBK266176] | 99.7 |
| Cc1oc2nc(SCC(=O)NCc3cccnc3)nc(N)c2c1C [CBK266178] | 106 |
| Cc1cccc(NC(=O)CSc2nc(O)c3c(C)cc(C)nc3n2)c1 [CBK266179] | 90.5 |
| NS(=O)(=O)c1ccc(NC(=O)CN2CCN(c3cccc(C(F)(F)F)c3)CC2)cc1 [CBK266180] | 105 |
| O=C(c1cccs1)N1CCN(S(=O)(=O)c2cccc([N+](=O)[O-])c2)CC1 [CBK266184] | 94.7 |
| COc1ccc(NC(=O)CSc2nnc(-c3ccncc3)n2-c2ccc(C)cc2)cc1Cl [CBK266187] | 98.3 |
| Cn1c(=O)c2[nH]c(NCCN3CCOCC3)nc2n(C)c1=O [CBK266189] | 98.6 |
| COc1cc(C=O)ccc1OCC(=O)Nc1ccc(C)c(Cl)c1 [CBK266190] | 111 |

| SMILES | viability at 28.5 h, 10 µM [%] |
| --- | --- |
| COc1ccc(-c2cc(C(F)(F)F)nc(SCC(=O)N3CCN(C)CC3)n2)cc1OC [CBK266194] | 96.1 |
| O=C(O)c1ccc(NC(CC(=O)c2ccccc2)c2ccc(Br)cc2)cc1 (centres unmarked) [CBK266195C] | 109 |
| Cc1cc(C(C)(C)C)cc(S(=O)(=O)Nc2ccc(O)c(C(=O)O)c2)c1C [CBK266196] | 101 |
| Cc1ccc(C2C=C(c3ccccc3)Nc3nc(N4C(=O)CCC4=O)nn32)cc1 (centres unmarked) [CBK266197] | 98.6 |
| Cc1cc(C(F)F)n2nc(C(=O)Nc3cccc(S(=O)(=O)N4CCOCC4)c3)nc2n1 [CBK266198] | 101 |
| CCC(SC1=NCCS1)C(=O)Nc1ccc(NC(C)=O)cc1 (centres unmarked) [CBK266199] | 97.4 |
| CC(CCc1ccccc1)NC(=O)CC1COc2ccccc2O1 (centres unmarked) [CBK266203] | 103 |
| O=C(CSc1nnc(-c2ccncc2)n1-c1ccc(Cl)cc1)Nc1ccccc1-c1ccccc1 [CBK266205] | 104 |
| Cn1ccnc1CN1CCN(Cc2nccn2C)CC1 [CBK266206C] | 98.7 |
| COc1nnc(-c2ccc(N3CCOCC3)c(NC(=O)COc3cccc(C)c3)c2)c2ccccc12 [CBK266207] | 81.9 |
| COc1ccc(C=O)cc1CSc1nc2ccccc2[nH]1 [CBK266209] | 94.7 |
| CC(C)C1CC(CCNCc2ccc(N(C)C)cc2)(c2ccccc2)CCO1 (centres unmarked) [CBK266210] | 98.9 |
| CC(=O)Nc1c(O)nc(SCC(=O)Nc2ccc(Cl)cc2)[nH]c1=O [CBK266214] | 106 |
| O=C(O)C(Cc1cc2ccccc2[nH]1)N1C(=O)C2CC=C(Cl)CC2C1=O (centres unmarked) [CBK266216] | 94.2 |
| CC(C)c1ccc(S(=O)(=O)NC(CC(=O)O)c2ccccc2)cc1 (centres unmarked) [CBK266217] | 102 |
| O=C(CSc1nnc(SCc2cccc3ccccc23)s1)c1ccc(F)cc1 [CBK266218] | 98.9 |
| CCOc1ccc(-n2c(SC/C=C/c3ccccc3)nnc2-c2cccnc2)cc1 [CBK266222] | 106 |
| Cc1cc2nc(SCCNC(=O)c3ccc(Cl)cc3)nc(C)c2cc1C [CBK266223] | 93.3 |
| O=C(COc1ccc2oc3c(c2c1)CCCC3)Nc1ccncc1 [CBK266227] | 100 |
| COc1ccc(-c2nn(C)c(=O)c3ccccc23)cc1CNC(=O)c1cc([N+](=O)[O-])ccc1OC [CBK266229] | 116 |

| SMILES | viability at 28.5 h, 10 µM [%] |
| --- | --- |
| Clc1ccc(Cn2ncc3c(NCCN4CCOCC4)ncnc32)cc1 [CBK266230] | 105 |
| NS(=O)(=O)c1ccc(NC(=O)CN2CCN(c3ccc([N+](=O)[O-])cc3)CC2)cc1 [CBK266232] | 96.8 |
| Cc1ccc([N+](=O)[O-])cc1S(=O)(=O)NCC(=O)O [CBK266234] | 94.7 |
| COc1ccc(-c2cc(C(F)(F)F)nc(S(=O)(=O)CCC(=O)Nc3ccc(C)cc3)n2)cc1 [CBK266235] | 105 |
| CC1Cc2cc(C(=O)C3=C(O)C(=O)N(Cc4ccco4)C3c3cccnc3)ccc2O1 (centres unmarked) [CBK266236] | 104 |
| O=C(CSc1nc(-c2ccco2)cc(C(F)(F)F)n1)Nc1ccc(C(=O)N2CCCCC2)cc1 [CBK266238] | 101 |
| Cc1ccc(S(=O)(=O)N2CCN(CC(O)COc3ccc4ccccc4c3)CC2)cc1 (centres unmarked) [CBK266239] | 97.7 |
| Cc1nnc(S)n1CC(=O)n1c2c(c3ccccc31)CCCC2 [CBK266244] | 106 |
| O=C(Nc1ccc(I)cc1C(=O)NCCN1CCOCC1)c1ccccc1Cl [CBK266245] | 101 |
| Cc1cc(NC(=O)CSc2nc(-c3ccc(F)cc3)cc(C(F)(F)F)n2)n(-c2ccccc2)n1 [CBK266248] | 102 |
| COc1cc(NC(=S)N2CCN(c3cc(Cl)ccc3C)CC2)cc(OC)c1 [CBK266252] | 100 |
| CNC1(c2nnnn2CCOC(=O)Nc2ccc(Cl)cc2)CCCC1 [CBK266253] | 102 |
| CN1CCN(c2ccc(NC(=S)NC(=O)c3cc(Br)ccc3Cl)cc2)CC1 [CBK266254C] | 96.2 |
| Brc1ccc(-n2c(SC/C=C/c3ccccc3)nnc2-c2ccncc2)cc1 [CBK266257] | 105 |
| CC1CCN(Cc2c(O)ccc3c(=O)c(-c4cccc(Cl)c4)c(C(F)(F)F)oc23)CC1 [CBK266258] | 103 |
| Cc1ccc(C(=O)N2CCN(S(=O)(=O)c3cccc([N+](=O)[O-])c3)CC2)cc1 [CBK266259] | 102 |
| Cc1ccc(S(=O)(=O)NC(C)C(=O)Nc2ccc(C)c(Cl)c2)cc1 (centres unmarked) [CBK266263] | 98 |
| Cn1c(SCC(=O)N2CCN(c3cccc(Cl)c3)CC2)nnc1-c1cccc([N+](=O)[O-])c1 [CBK266264] | 97.8 |
| CN1CCN(C(=O)c2ccccc2N(Cc2ccccc2)S(C)(=O)=O)CC1 [CBK266267] | 101 |
